The nature of data set [1]: Drug metabolism in Sprague-Dawley rat plasma assessed as (E)-3-(3-((2-Cyano-4'-dimethylaminobiphenyl-4-ylmethyl)-cyclohexanecarbonylamino)-5-fluorophenyl)acrylic Acid metabolite formation at 5 mg/kg, iv measured up to 20 to 60 mins by RP-HPLC analysis. Format: ADME, organism-based. The following applies: in vivo, time 20-60 min.
Data set [2] can be described thus: Drug metabolism in Sprague-Dawley rat plasma assessed as retention time of unidentified major metabolite at 5 mg/kg, iv upto 1 hr by RP-HPLC analysis. Format: ADME, organism-based. As to conditions: in vivo.
A short description of data set [3]: Stability in Sprague-Dawley rat plasma at 80 mg/kg, po measured after 5 hrs by RP-HPLC analysis. Format: ADME, organism-based. As to conditions: in vivo.
A short description of data set [4]: AUClast in Sprague-Dawley rat at 5 mg/kg, iv measured up to 24 hrs by HPLC analysis. Format: ADME, organism-based. Further details: time < 24 hrs, dose 5 mg/kg, route iv. As to conditions: in vivo, 24 h.
Data set [5] is described as follows: AUClast in Sprague-Dawley rat at 80 mg/kg, po measured up to 24 hrs by HPLC analysis. Format: ADME, organism-based. The arrangement: dose 80 mg/kg, time < 24 hrs, route po. The following applies: in vivo.
A short description of data set [6]: Half life in Sprague-Dawley rat at 5 mg/kg, iv measured up to 24 hrs by HPLC analysis. The following applies: in vivo. Type of data set: ADME, organism-based.
The nature of data set [7]: Clearance in Sprague-Dawley rat at 5 mg/kg, iv measured up to 24 hrs by HPLC analysis. Format: ADME, organism-based. As to conditions: in vivo.
Data set [8] is described as follows: Volume of distribution at steady state in Sprague-Dawley rat at 5 mg/kg, iv measured up to 24 hrs by HPLC analysis. Format: ADME, organism-based. The following applies: in vivo, read-out: Vdss.
The nature of data set [9]: Oral bioavailability in Sprague-Dawley rat at 80 mg/kg measured up to 24 hrs by HPLC analysis. As to conditions: in vivo. Format: ADME, organism-based.
Data set [10] has as its target T1, Bile acid receptor (Mus musculus) (UniProt Q60641).
T1 sequence (whole entry): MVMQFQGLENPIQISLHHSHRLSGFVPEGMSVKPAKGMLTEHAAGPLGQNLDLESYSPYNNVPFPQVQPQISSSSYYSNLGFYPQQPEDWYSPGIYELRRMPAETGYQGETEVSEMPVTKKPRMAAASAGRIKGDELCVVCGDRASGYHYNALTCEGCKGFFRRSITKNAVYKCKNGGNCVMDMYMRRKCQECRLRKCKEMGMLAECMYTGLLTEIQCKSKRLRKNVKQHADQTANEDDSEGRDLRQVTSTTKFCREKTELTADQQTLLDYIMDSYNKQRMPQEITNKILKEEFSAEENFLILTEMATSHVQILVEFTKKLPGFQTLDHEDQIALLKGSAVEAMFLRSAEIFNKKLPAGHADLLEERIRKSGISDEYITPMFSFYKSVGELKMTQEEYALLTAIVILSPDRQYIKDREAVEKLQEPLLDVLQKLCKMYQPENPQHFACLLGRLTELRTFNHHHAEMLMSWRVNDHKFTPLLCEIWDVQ
Briefly: In vivo activation of FXR in CDAHFD-induced nonalcoholic steatohepatitis C57BL/6J mouse model assessed as induction of FGF15 gene expression at 80 mg/kg, po administered daily for 4 weeks. Type of data set: functional, organism-based.

The target in data set [11] is T1, Bile acid receptor (Mus musculus). Briefly: In vivo activation of FXR in CDAHFD-induced nonalcoholic steatohepatitis C57BL/6J mouse model assessed as induction of SHP gene expression at 80 mg/kg, po administered daily for 4 weeks. Type of data set: functional, organism-based.
Data set [12] has the same target. Briefly: In vivo activation of FXR in CDAHFD-induced nonalcoholic steatohepatitis C57BL/6J mouse model assessed as induction of IBABP gene expression at 80 mg/kg, po administered daily for 4 weeks. Type of data set: functional, organism-based.
The target is the same in data set [13]. Briefly: In vivo activation of FXR in CDAHFD-induced nonalcoholic steatohepatitis C57BL/6J mouse model assessed as induction of OST-alpha gene expression at 80 mg/kg, po administered daily for 4 weeks. Type of data set: functional, organism-based.
Data set [14] can be described thus: Toxicity in CDAHFD-induced nonalcoholic steatohepatitis C57BL/6J mouse model assessed as change in body weight at 80 mg/kg, po administered daily for 4 weeks. Format: organism-based. As to conditions: in vivo, 672 h.
Data set [15] is described as follows: Toxicity in CDAHFD-induced nonalcoholic steatohepatitis C57BL/6J mouse model assessed as change in amount of food intake at 80 mg/kg, po administered daily for 4 weeks. Format: organism-based. As to conditions: in vivo, 672 h.
In data set [16] the target is T1, Bile acid receptor (Mus musculus). Briefly: In vivo activation of FXR in […]-induced nonalcoholic steatohepatitis C57BL/6J mouse model assessed as improved glucose tolerance measured up to 120 mins by glucose tolerance test. Format: functional.
Data set [17] is described as follows: Toxicity in CDAHFD-induced nonalcoholic steatohepatitis C57BL/6J mouse model assessed as increase in liver wet weight at 80 mg/kg, po administered daily for 4 weeks […]. Format: organism-based. As to conditions: in vivo, 672 h.
Data set [18] addresses T1, Bile acid receptor (Mus musculus). Description: In vivo activation of FXR in CDAHFD-induced nonalcoholic steatohepatitis C57BL/6J mouse model assessed as reduction in liver fibrosis at 80 mg/kg, po administered daily for 4 weeks by picrosirius red staining method. Format: functional, organism-based.
Data set [19] is described as follows: Toxicity in CDAHFD-induced nonalcoholic steatohepatitis C57BL/6J mouse model assessed as reduction in serum AST level at 80 mg/kg, po administered daily for 4 weeks. As to conditions: in vivo, 672 h. Type of data set: organism-based.
Data set [20] relates to Mus musculus. Description: Antifibrotic activity in CDAHFD-induced nonalcoholic steatohepatitis C57BL/6J mouse model assessed as reduction in COL1A1 gene expression at 80 mg/kg, po administered daily for 4 weeks. Format: functional, organism-based.
In data set [21] the test system is Mus musculus. Briefly: Antifibrotic activity in CDAHFD-induced nonalcoholic steatohepatitis C57BL/6J mouse model assessed as reduction in TIMP-1 gene expression at 80 mg/kg, po administered daily for 4 weeks. Type of data set: functional, organism-based.
Data set [22] deals with Mus musculus. Briefly: Antiinflammatory activity in CDAHFD-induced nonalcoholic steatohepatitis C57BL/6J mouse model assessed as reduction in IL-1beta gene expression at 80 mg/kg, po administered daily for 4 weeks. Format: functional, organism-based.
Data set [23] concerns the target T2, Bile acid receptor (Homo sapiens) (UniProt Q96RI1).
T2 sequence (whole entry): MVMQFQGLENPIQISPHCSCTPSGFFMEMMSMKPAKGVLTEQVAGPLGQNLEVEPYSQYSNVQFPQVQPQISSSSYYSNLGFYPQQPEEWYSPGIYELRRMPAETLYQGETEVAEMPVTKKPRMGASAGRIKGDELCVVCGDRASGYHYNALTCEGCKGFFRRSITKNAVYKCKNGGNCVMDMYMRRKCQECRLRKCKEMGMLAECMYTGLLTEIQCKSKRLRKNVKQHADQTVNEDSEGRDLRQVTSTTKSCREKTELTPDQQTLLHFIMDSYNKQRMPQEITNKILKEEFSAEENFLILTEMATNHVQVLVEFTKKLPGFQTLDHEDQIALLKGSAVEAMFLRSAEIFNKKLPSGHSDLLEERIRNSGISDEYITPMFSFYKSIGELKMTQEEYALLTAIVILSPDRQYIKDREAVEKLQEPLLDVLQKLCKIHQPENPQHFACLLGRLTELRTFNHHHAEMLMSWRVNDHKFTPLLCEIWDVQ
Description: Partial agonist activity at FXR (unknown origin) expressed in CHO-K1 cells coexpressed with beta-galactosidase incubated for 3 to 16 hrs by PathHunter chemiluminescence based assay relative to GW4064. Format: cell-based. As to conditions: filed as partial agonist, time 3-16 hrs.

In data set [24] the target is Peroxisome proliferator-activated receptor delta (Homo sapiens, UniProt Q03181). Description: Agonist activity at human PPAR-delta expressed in CHO-K1 cells by PathHunter assay. Type of data set: cell-based.
Chain of Peroxisome proliferator-activated receptor delta (Q03181 whole entry): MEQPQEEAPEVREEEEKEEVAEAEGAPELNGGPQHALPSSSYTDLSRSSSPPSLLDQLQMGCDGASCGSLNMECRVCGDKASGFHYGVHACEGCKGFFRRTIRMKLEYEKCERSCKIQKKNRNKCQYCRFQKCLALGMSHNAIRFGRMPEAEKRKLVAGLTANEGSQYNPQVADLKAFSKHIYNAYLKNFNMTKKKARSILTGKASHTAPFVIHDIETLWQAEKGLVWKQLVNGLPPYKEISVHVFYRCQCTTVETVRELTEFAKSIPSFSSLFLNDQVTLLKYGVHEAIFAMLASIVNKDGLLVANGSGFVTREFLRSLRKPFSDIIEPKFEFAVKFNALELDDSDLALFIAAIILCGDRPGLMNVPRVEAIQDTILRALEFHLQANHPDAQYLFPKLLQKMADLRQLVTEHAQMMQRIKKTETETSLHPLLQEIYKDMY

The source made the active and inactive calls. The calls are words filed in the database; no cut-off is given here.

For the compound `COC(=O)/C=C/c1cc(F)cc(N(Cc2ccc(-c3ccc(N(C)C)cc3)c(C#N)c2)C(=O)C2CCCCC2)c1`, the Drug metabolism entry in data set [1] is on record as “Metabolite_Detected”. In addition, the Retention_time in data set [2] is listed as 5.25 min. The Stability result in data set [3] is recorded as “Unstable”. Besides, the AUClast in [4] worked out at 900 ng·h/mL; in data set [5], 1500 ng·h/mL. The compound also had a half-life in data set [6] of 4.8 min. For the same compound, in [7], the clearance was 93.3 mL/min/kg. Also, the Vd in data set [8] came out at 0.7 L/kg. Further, the F in [9] is 4%. Also, the outcome in data set [10], in data set [11], in data set [12], in [13], in data set [16] and in data set [18] was Active. Besides, the result with Mus musculus [20], in the data set on Mus musculus [21] and in the data set on Mus musculus [22] was Active. The Activity result in [14], in data set [15], in [17] and in data set [19] was “Non-Toxic” each time. Also, in data set [23], the Emax amounted to 53%.

On to `CCCc1c(OCCCOc2ccc(OCC(=O)O)cc2)ccc(C(C)=O)c1O`, for which the EC50 in [24] worked out at 6 nM.

A word on the half-life: it is how long it takes for the measured level to halve. Broadly, the clearance is a measure of how efficiently the substance is removed, as volume per time. A high value points to efficient removal. As a reminder, the Emax is the greatest response seen or fitted, relative to the assay's reference. In general, EC50 refers to the concentration at which the effect is half-maximal. Read a high EC50 as a need for much substance.

(Values after ChEMBL document CHEMBL5143733, “Discovery of (E)-3-(3-((2-Cyano-4'-dimethylaminobiphenyl-4-ylmethyl)cyclohexanecarbonylamino)-5-fluorophenyl)acrylic Acid Methyl Ester, an Intestine-Specific, FXR Partial Agonist for the Treatment of Nonalcoholic Steatohepatitis” (J Med Chem, 2022).)
